{"source": "patent US20130109581A1", "about": "“POSITIVELY CHARGED SPECIES AS BINDING REAGENTS IN THE SEPARATION OF PROTEIN AGGREGATES FROM MONOMERS” (priority 2009, published 2013)", "key": {"Aβ(1-42) aggregates": {"biological_target": "T1, Aβ(1-42) aggregates (Homo sapiens, UniProt P05067)", "T1 construct": "For Aβ(1-42), 10 nL of 10% brain homogenate was added to each well; from tissue; host or cells: Alzheimer's disease patient brain homogenate", "T1 sequence (P05067 672-713 limits assumed)": "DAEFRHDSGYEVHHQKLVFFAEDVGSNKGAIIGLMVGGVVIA", "type": "binding"}, "Abeta 1-42 globulomer": {"biological_target": "T2, Abeta 1-42 globulomer (Homo sapiens, UniProt P05067)", "T2 construct": "beta amyloid (1-42) was monomerized with incubation in hexafluoroisopropanol", "T2 sequence (P05067 672-713 limits assumed)": "as above", "assay": "Globulomer capture assay in CSF (Example 6)", "type": "binding", "description": "A series of new potential aggregate-specific binding reagents were designed as shown below and conjugated onto magnetic Dynal M270 beads as described in Example 2. Typically 7-12 nmol of ligand (each candidate aggregate-specific binding reagent) was coated onto 1 mg of beads.\nAliquots of the beads (typically 3 ul) were added to wells of a 96 well plate, followed by sample (with or without Abeta 1-42 globulomer (an Abeta42 oligomer model) spiked in 80:20 CSF:TBSTT, typically 125 ul). The plate was sealed and incubated for 1 hour at 37° C. with shaking. The plate was washed with aqueous solutions of detergent (typically polyethylene glycol sorbitan monolaurate and n-tetradecyl-N,N-dimethyl-3-ammonio-1-propanesulfonate) to remove ubound material and the residual buffer removed. A denaturing solution (typically 0.1-0.15 N NaOH) was added to each well and the plate heated to 80° C. for 30 min with shaking. After cooling the plate to room temperature, a neutralizing buffer (typically 0.12-0.18 M NaH2PO3 in 0.4% TWEEN20,) was added and the plate was shaken briefly at room temperature. The bead eluate was analyzed using either an Aβ42-specific ELISA or the MSD® 96-Well MULTI-SPOT® Human/Rodent [4G8] Abeta Triplex Ultra-Sensitive Assay from Meso Scale Discovery (Gaithersburg, Md.). For the Aβ42-specific assay, the samples were eluted from the beads and a detection antibody (4G8 HRP) was added to a plate bearing the Aβ42-specific antibody 12F4. The plate was incubated for 1 hour, washed, the substrate was added (SuperSignal West Femto Maximum Sensitivity Substrate from Thermo Fisher, Rockville, Md.), and the luminescence was measured. The MSD plate assay was performed in a similar fashion, according to the manufacturer's protocol.\nIn this experiment the preferred number of charges within a given scaffold was identified. An Ala/Lys peptide framework was utilized, where the inclusion of each Lys residue increases the peptides' net charge by +1. Six hexapeptides with increasing charge (+1→+6), AAAKAA, AAKKAA, AAKKKA, AKKKKA, AKKKKK, and KKKKKK, were prepared and conjugated on the beads. The ability of these beads to capture Abeta 1-42 globulomer spiked at 1 ng/mL into CSF was tested, and the result is shown in FIG. 25. The globulomer capture level (“42 1 ng/ml” or the closed bars) was compared to the background signal of Abeta 1-42 detected in the unspiked CSF (“42 0 ng/ml”) and the background signal of Abeta 1-40 detected in unspiked CSF (“40 0 ng/ml”) or CSF spiked with AB42 oligomers “40 1 ng/ml”. The charge density, as conjugated to the magnetic beads, of each reagent evaluated in this experiment is shown below in Table 8."}, "Aβ42 Globulomer": {"biological_target": "T3, Aβ42 Globulomer (Homo sapiens, UniProt P05067)", "T3 construct": "beta amyloid (1-42) was monomerized with incubation in hexafluoroisopropanol", "T3 sequence (P05067 672-713 limits assumed)": "as above", "assay": "Misfolded Protein Assay, LoD and capture in CSF: globulomer", "type": "binding", "conditions": "for LoD: spiked into CSF", "description": "(§1) The Ab42 aggregates were prepared as previously described: fibrils were prepared per Stine et al (JBC 2003, 278, p11612), globulomers were prepared per Barghorn et al (J Neurology 2005 95 p834), ADDLs were prepared per Lambert et al (PNAS 1998, 95 p6448), and ASPDs were prepared per Noguchi et al (JBC 2009 284 p32895). Normal CSF was pooled from clinically characterized non-demented patient CSF samples. AD CSF was pooled from clinically-characterized AD patient samples. Alzheimer's Disease Brain Homogenate (ADBH) was prepared by sonication of clinically diagnosed AD patient brain samples in 0.2M.sucrose (1:10 w/v).\n(§2) For the capture assay (Misfolded Protein Assay), aliquots of the beads (30 ul) were added to wells of a 96 well plate, followed by 125 ul of sample in 80:20 CSF:TBSTT. The plate was sealed and incubated for 1 h at 37 C with shaking. The plate was washed with TBST and the residual buffer removed. A denaturing solution (0.1 N NaOH) was added to each well and the plate heated to 80 C. for 30 min with shaking. After cooling the plate to RT, a neutralizing buffer (0.12 M NaH2PO3-0.4% TW20,) was added and the plate shaken briefly at RT. The assay was analyzed using the triplex Mesoscale Discovery ELISA kit for Aβ. The Aβ in the samples eluted from the beads were detected per the manufacturer's protocol.\n(§3) For the Limit of Detection (LoD) studies, serial dilutions of each aggregate were spiked into CSF and were assayed per the protocol described above. The LoD was defined as 2× over background levels.\n(§4) This pattern minors the capture selectivity observed when these species are tested with 3 ul of PSR1 beads and 1 ng/mL of aggregate."}, "Aβ42 ADDL": {"biological_target": "Aβ42 ADDL (Homo sapiens, UniProt P05067)", "sequence (P05067 672-713 limits assumed)": "as above", "assay": "Misfolded Protein Assay, LoD and capture in CSF: ADDL", "type": "binding", "conditions": "for LoD: spiked into CSF", "description": "as §1, §2, §3, §4"}, "alpha synuclein fibrils": {"biological_target": "alpha synuclein fibrils (Homo sapiens, UniProt P37840)", "assay": "MPA of alpha-synuclein fibrils in CSF or plasma", "type": "binding", "description": "Amylin fibrils were prepared as reported in J. Biological Chem. (1999) 274, No. 28, pp 19509-19512. To denature the fibrils, samples were treated with 5.4 M guanidine thiocyanate for 30 minutes at room temperature. The samples were then diluted to the indicated concentrations and alpha synuclein was detected by a sandwich ELISA (Invitrogen; catalog #KHB0061) according to the manufacturer's instructions.\nThe specificity of PSR1 beads for aggregated alpha synuclein was tested by incubating 3 ul PSR1 beads with fibrillar alpha-synuclein with or without a pretreatment with chemical denaturant (5.4 M guanidine thiocyanate for 30 minutes at room temperature). Alpha synuclein was diluted into 125 ul 80% CSF or plasma in TBSTT (50 mM Tris, 150 mM NaCl, 1% TritonX-100, 1% Tween20) at the indicated concentrations. Samples were incubated for 1 hour at 37 C and 550 rpm before washing with TBS 0.05% Tween20 buffer. Bound alpha synuclein was eluted from the beads with 4 ul 6 M guanidine thiocyanate (30 minutes at room temperature), diluted with 246 ul ELISA diluent buffer and then detected by sandwich ELISA (Invitrogen; catalog #KHB0061)."}, "PrP^Sc": {"biological_target": "PrP^Sc (Mesocricetus auratus, UniProt P04273)", "sequence (P04273 23-231 limits assumed)": "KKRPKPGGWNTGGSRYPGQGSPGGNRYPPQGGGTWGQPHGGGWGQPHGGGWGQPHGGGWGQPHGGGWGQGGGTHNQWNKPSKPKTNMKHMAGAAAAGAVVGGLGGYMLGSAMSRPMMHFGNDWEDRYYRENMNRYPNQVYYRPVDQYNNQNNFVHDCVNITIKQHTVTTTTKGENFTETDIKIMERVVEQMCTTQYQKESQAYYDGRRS"}, "[1]": {"biological_target": "T4, oligomeric beta amyloid 1-42 (globulomer) (Homo sapiens, UniProt P05067)", "T4 construct": "beta amyloid (1-42) was monomerized with incubation in hexafluoroisopropanol", "T4 sequence (P05067 672-713 limits assumed)": "as the sequence (P05067 672-713 limits assumed) above", "assay": "Misfolded Protein Assay: capture of globulomer spiked into CSF (Example 2)", "type": "binding", "conditions": "conjugated to cellulose membrane; loading approximately 100× higher than on beads"}, "[2]": {"conditions": "3 ul of beads and 1 ng/mL of aggregate"}}, "note": "“And” between values parts separate entries of the source, which are not always exact repeats. Identical values can stand only once.", "data": [{"substance": "Nab-Nab-Nab-Nbn-Nab-Nbn [PSR1]", "values": [{"measurement": "distinguishing control and AD brain homogenates, Abeta (1-42) detected", "setting": "Aβ(1-42) aggregates", "value": "clearly distinguished between control and either vCJD or AD samples"}, {"measurement": "42:40 (signal:noise ratio)", "setting": "Abeta 1-42 globulomer; 1 ng/ml average reading, ratio of 42 to 40", "value": 4.1}, {"measurement": "42, 1 ng/ml average reading", "setting": "Abeta 1-42 globulomer; Abeta 1-42 globulomer spiked at 1 ng/mL into CSF", "value": 970.5, "unit": "RLUs"}, {"measurement": "capture of Globulomer", "setting": "Aβ42 Globulomer; [2]", "value": 1267}, {"measurement": "LoD", "setting": "Aβ42 Globulomer", "value": "~140", "unit": "amol"}, {"measurement": "LoD", "setting": "Aβ42 Globulomer; LoD = 2× over background", "value": "~75 pg/mL and 75 pg/mL"}, {"measurement": "capture of ADDL", "setting": "Aβ42 ADDL; [2]", "value": 1219}, {"measurement": "LoD", "setting": "Aβ42 ADDL", "value": "~20", "unit": "amol"}, {"measurement": "LoD", "setting": "Aβ42 ADDL; LoD = 2× over background", "value": "~200 pg/mL and 200 pg/mL"}, {"measurement": "binding to alpha synuclein fibrils compared to control bead", "setting": "alpha synuclein fibrils; diluted into CSF or plasma, FIG. 50", "value": "specifically bound to alpha synuclein (aSyn) fibrils"}, {"measurement": "binding to alpha synuclein fibrils vs monomers", "setting": "alpha synuclein fibrils; native vs denatured aSyn in CSF or plasma, FIG. 51", "value": "bound preferentially to alpha synuclein fibrils"}, {"measurement": "PrP^Sc capture signal", "setting": "PrP^Sc", "value": "Signal was observed with the 100 or 300 ng/mL spike levels"}, {"measurement": "ability to bind preferentially to oligomers in solution", "setting": "[1]", "value": "continued to increase the ability of PSR1 to bind preferentially to oligomers in solution"}]}]}
